This is an account of results in patent US8551984B2, “Aminopyrimidines as SYK inhibitors” (Merck Sharp & Dohme Corp., priority 2009, dated 2013).

One experiment has as its target rhSYK (Homo sapiens, UniProt P43405).
Assay: not given
Particulars: read-out: rhSYK Activity; class symbol; where two forms are listed, one symbol per form.
As to `Cc1cc(Nc2nccc(C(F)(F)F)n2)cc(-c2cnc(C(C)(O)c3cccc(C(=O)O)c3)s2)c1` (single isomer, unassigned) [Example 4A-54], the IC50 was < 100 nM.

Regarding `Cc1cc(Nc2nccc(C(F)(F)F)n2)cc(-c2cnc(C(C)(O)c3cccc(C(=O)O)c3)s2)c1` (single isomer, unassigned) [Example 4A-55], the IC50 was < 100 nM.

Turning to `Cc1cc(Nc2nccc(C(F)(F)F)n2)cc(-c2cnc(C(C)(O)c3ccc(CC(=O)O)cc3)s2)c1` (single isomer, unassigned) [Example 4A-59], the IC50 is < 100 nM.

For `Cc1cc(Nc2nccc(C(F)(F)F)n2)cc(-c2cnc(C(C)(O)c3ccc(CC(=O)O)cc3)s2)c1` (single isomer, unassigned) [Example 4A-60], the IC50 was < 100 nM.

The experiment is the same for the next values; noted with them: read-out: rhSYK activity; class symbol given.
For the compound `Cc1cc(Nc2nccc(C(F)(F)F)n2)cc(-c2cnc(C3(O)CCC(C(=O)O)CC3)s2)c1` (single isomer, unassigned) [33(1), trans-4-hydroxy-4-[5-(3-methyl-5-{[4-(trifluoromethyl)pyrimidin-2-yl]amino}phenyl)-1,3-thiazol-2-yl]cyclohexanecarboxylic acid], the IC50 was < 100 nM.

For the compound `Cc1cc(Nc2nccc(C(F)(F)F)n2)cc(-c2cnc(C3(O)CCC(C(=O)O)CC3)s2)c1` (single isomer, unassigned) [33(2), cis-4-hydroxy-4-[5-(3-methyl-5-{[4-(trifluoromethyl)pyrimidin-2-yl]amino}phenyl)-1,3-thiazol-2-yl]cyclohexanecarboxylic acid], the IC50 is < 100 nM.

The target of the next experiment is recombinant human SYK (GST-hSYK fusion protein) (Homo sapiens, UniProt P43405). Briefly: biochemical. The settings on record: Syk IC50, HTRF, recombinant human GST-SYK. (TR-FRET usually uses a lanthanide donor and a delayed reading to cut background.)
Text: Homogeneous Time-Resolved Fluorescence (HTRF) Assay for the Recombinant Human SYK Enzyme:
As for `Cc1cc(Nc2nccc(C(F)(F)F)n2)cc(-c2cnc(C3CCC4(CC3)OCCO4)s2)c1` [N-{3-[2-(1,4-diaxaspiro[4.5]dec-8-yl)-1,3-thiazol-5-yl]-5-methylphenyl}-4-(trifluoromethyl)pyrimidin-2-amine], the IC50 is 297 nM.

On to `Cc1cc(Nc2nccc(C(F)(F)F)n2)cc(-c2cnc(C3(O)CCCN(CC(=O)O)CC3)s2)c1` (stereo not drawn) [{4-hydroxy-4-[5-(3-methyl-5-{[4-(trifluoromethyl)pyrimidin-2-yl]amino}phenyl)-1,3-thiazol-2-yl]azepan-1-yl)acetic acid], for which the IC50 is 216 nM.

The same experiment, now with this note: rhSYK Activity (IC50), recombinant human GST-SYK 5 pM, ATP 25 μM, biotinylated substrate peptide 250 nM, HTRF, 10-dose titration.
On to `Cc1cc(Nc2nccc(C(F)(F)F)n2)cc(-c2cnc(C3CCS(=O)(=O)CC3)s2)c1` [Example 137, N-{3-[2-(1,1-dioxidotetrahydro-2H-thiopyran-4-yl)-1,3-thiazol-5-yl]-5-methylphenyl}-4-(trifluoromethyl)pyrimidin-2-amine], for which the IC50 is < 100 nM.

`Cc1cc(Nc2nccc(C(F)(F)F)n2)cc(-c2cnc(C34CCC(C(=O)O3)C(C)(C)C4)s2)c1` (stereo not drawn) [Example 139, Cis-5,5-dimethyl-1-[5-(3-methyl-5-{[4-(trifluoromethyl)pyrimidin-2-yl]amino}phenyl)-1,3-thiazol-2-yl]-2-oxabicyclo[2.2.2]octan-3-one]: the IC50 fell in the range of 100 to 1000 nM.

As to `Cc1cc(Nc2nccc(C(F)(F)F)n2)cc(-c2cnc(C3(O)CCC(O)C4(CC4)C3)s2)c1` (stereo not drawn) [Example 143(A), 7-[5-(3-methyl-5-{[4-(trifluoromethyl)pyrimidin-2-yl]amino}phenyl)-1,3-thiazol-2-yl]spiro[2.5]octane-4,7-diol], the IC50 was < 100 nM.

`Cc1cc(Nc2nccc(C(F)(F)F)n2)cc(-c2cnc(C3(O)CC4(CC4)C(O)C4(CC4)C3)s2)c1` (stereo not drawn) [Example 143(B), 9-[5-(3-methyl-5-{[4-(trifluoromethyl)pyrimidin-2-yl]amino}phenyl)-1,3-thiazol-2-yl]dispiro[2.1.2.3]decane-4,9-diol]: the IC50 was < 100 nM.

As to `Cc1cc(Nc2nccc(C(F)(F)F)n2)cc(-c2cnc(C3CCCCNC3=O)s2)c1` (stereo not drawn) [Example 144, 3-[5-(3-methyl-5-{[4-(trifluoromethyl)pyrimidin-2-yl]amino}phenyl)-1,3-thiazol-2-yl]azepan-2-one], the IC50 is < 100 nM.

Turning to `Cc1cc(Nc2nccc(C(F)(F)F)n2)cc(-c2cnc(/C=C/c3ccc(C(=O)O)cc3)s2)c1` [Example 147], the IC50 was < 100 nM.

On to `Cc1cc(Nc2nccc(C(F)(F)F)n2)cc(-c2cnc(CCc3ccc(C(=O)O)cc3)s2)c1` [Example 148, 4-{2-[5-(3-methyl-5-{[4-(trifluoromethyl)pyrimidin-2-yl]amino}phenyl)-1,3-thiazol-2-yl]ethyl}benzoic acid], for which the IC50 was < 100 nM.

`Cc1cc(Nc2nccc(C(F)(F)F)n2)cc(-c2cnc(C(C)(O)c3ccc(C(=O)O)nc3)s2)c1` (stereo not drawn) [Example 149, 5-{1-Hydroxy-1-[5-(3-methyl-5-{[4-(trifluoromethyl)pyrimidin-2-yl]amino}phenyl)-1,3-thiazol-2-yl]ethyl}pyridine-2-carboxylic acid]: the IC50 is < 100 nM.

With `Cc1cc(Nc2nccc(C(F)(F)F)n2)cc(-c2cnc(C(C)(O)c3ccc(C(=O)O)cn3)s2)c1` (stereo not drawn) [Example 150, 6-{1-Hydroxy-1-[5-(3-methyl-5-{[4-(trifluoromethyl)pyrimidin-2-yl]amino}phenyl)-1,3-thiazol-2-yl]ethyl}pyridine-3-carboxylic acid], the IC50 was < 100 nM.

`Cc1cc(Nc2nccc(C)n2)cc(-c2cnc([C@@]3(O)CC[C@H](C(=O)O)C(C)(C)C3)s2)c1` [Example 152, (1S,4R)-4-Hydroxy-2,2-dimethyl-4-{5-[3-methyl-5-(4-methyl-pyrimidin-2-ylamino)-phenyl]-1,3-thiazol-2-yl}-cyclohexanecarboxylic acid]: the IC50 is < 100 nM.

Consider `CCOP(=O)(OCC)[C@]1(O)CC[C@@](O)(c2ncc(-c3cc(C)cc(Nc4nccc(C(F)(F)F)n4)c3)s2)CC1` [Example 155(A), Diethyl{cis-1,4-dihydroxy-4-[5-(3-methyl-5-{[4-(trifluoromethyl)pyrimidin-2-yl]amino}phenyl)-1,3-thiazol-2-yl]cyclohexyl}phosphonate], for which the IC50 was < 100 nM.

With `Cc1cc(Nc2nccc(C(F)(F)F)n2)cc(-c2cnc(C3(O)CCC/C(=N\O)C3(C)C)s2)c1` (stereo not drawn) [Example 156, (3E)-3-(Hydroxyimino)-2,2-dimethyl-1-[5-(3-methyl-5-{[4-(trifluoromethyl)pyrimidin-2-yl]amino}phenyl)-1,3-thiazol-2-yl]cyclohexanol], the IC50 is < 100 nM.

In the case of `Cc1cc(Nc2nccc(-c3cnn(CC(C)(C)O)c3)n2)cc(-c2cnc(C3(O)CCC3)s2)c1` [Example 157, 1-{5-[3-({4-[1-(2-hydroxy-2-methylpropyl)-1H-pyrazol-4-yl]pyrimidin-2-yl}amino)-5-methylphenyl]-1,3-thiazol-2-yl}cyclobutanol], the IC50 was < 100 nM.

As for `Cc1cc(Nc2nccc(OCCO)n2)cc(-c2cnc(C(O)(CO)CO)s2)c1` [Example 158, 2-[5-(3-{[4-(2-hydroxyethoxy)pyrimidin-2-yl]amino}-5-methylphenyl)-1,3-thiazol-2-yl]propane-1,2,3-triol], the IC50 was < 100 nM.

Turning to `Cc1cc(Nc2nccc(OCCO)n2)cc(-c2cnc(C3(O)CCC(C(=O)O)C(C)(C)C3)s2)c1` (stereo not drawn) [Example 159, 4-hydroxy-4-[5-(3-{[4-(2-hydroxyethoxy)pyrimidin-2-yl]amino}-5-methylphenyl)-1,3-thiazol-2-yl]-2,2-dimethylcyclohexanecarboxylic acid], the IC50 is < 100 nM.

On to `Cc1cc(Nc2nccc(C(F)(F)F)n2)cc(-c2cnc(C3(N)CCNC(=O)CC3)s2)c1` (stereo not drawn) [Example 162, 5-amino-5-[5-(3-methyl-5-{[4-(trifluoromethyl)pyrimidin-2-yl]amino}phenyl)-1,3-thiazol-2-yl]azepan-2-one], for which the IC50 is < 100 nM.
